The target of test [1] is T1, Angiotensin-converting enzyme (Rattus norvegicus) (UniProt P47820).
T1 sequence (whole entry): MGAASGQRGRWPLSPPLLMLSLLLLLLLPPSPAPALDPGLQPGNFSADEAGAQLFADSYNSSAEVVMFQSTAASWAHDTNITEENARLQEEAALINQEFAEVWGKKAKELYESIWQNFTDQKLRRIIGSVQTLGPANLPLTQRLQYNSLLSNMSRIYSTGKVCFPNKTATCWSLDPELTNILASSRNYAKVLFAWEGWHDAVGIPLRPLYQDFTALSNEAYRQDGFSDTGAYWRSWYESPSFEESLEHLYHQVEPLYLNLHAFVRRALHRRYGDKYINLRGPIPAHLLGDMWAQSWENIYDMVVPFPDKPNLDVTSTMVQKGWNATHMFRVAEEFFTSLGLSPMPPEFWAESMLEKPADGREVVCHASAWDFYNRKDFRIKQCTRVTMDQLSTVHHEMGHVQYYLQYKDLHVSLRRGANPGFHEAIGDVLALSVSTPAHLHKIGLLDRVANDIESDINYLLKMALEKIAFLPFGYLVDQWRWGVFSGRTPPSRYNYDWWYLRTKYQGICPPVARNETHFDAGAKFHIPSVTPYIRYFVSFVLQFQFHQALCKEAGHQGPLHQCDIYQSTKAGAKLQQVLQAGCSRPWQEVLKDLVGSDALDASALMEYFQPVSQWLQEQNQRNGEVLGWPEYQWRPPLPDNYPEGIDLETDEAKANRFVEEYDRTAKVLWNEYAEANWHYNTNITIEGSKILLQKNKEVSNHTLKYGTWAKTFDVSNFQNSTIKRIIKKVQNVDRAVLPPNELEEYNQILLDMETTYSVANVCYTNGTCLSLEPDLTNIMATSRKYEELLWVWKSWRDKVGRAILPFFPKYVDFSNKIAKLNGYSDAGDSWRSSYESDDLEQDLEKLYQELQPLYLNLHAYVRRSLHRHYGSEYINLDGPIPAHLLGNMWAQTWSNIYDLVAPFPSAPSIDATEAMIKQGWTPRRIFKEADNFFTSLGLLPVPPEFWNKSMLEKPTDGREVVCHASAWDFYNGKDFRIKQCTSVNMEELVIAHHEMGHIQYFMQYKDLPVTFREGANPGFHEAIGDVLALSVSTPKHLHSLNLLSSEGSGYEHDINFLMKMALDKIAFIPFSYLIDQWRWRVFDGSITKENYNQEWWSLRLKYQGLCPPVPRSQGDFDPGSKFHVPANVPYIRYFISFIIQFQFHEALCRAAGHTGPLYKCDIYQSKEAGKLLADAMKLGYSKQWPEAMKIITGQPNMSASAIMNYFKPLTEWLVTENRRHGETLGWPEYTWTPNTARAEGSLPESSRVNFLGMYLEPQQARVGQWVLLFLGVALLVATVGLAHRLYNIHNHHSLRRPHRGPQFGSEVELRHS
Briefly: (§1) Inhibition of ACE from rat kidney using hippuryl-histidyl-leucine as substrate after 30 mins by UV/VIS spectrophotometry.

Test [2] concerns the target T2, Angiotensin-converting enzyme (Rattus norvegicus, UniProt P47820).
T2 sequence (P47820 whole entry): T1 sequence (whole entry)
The description is as §1.

Peptide text beside a SMILES is read from it.

As to `CC[C@H](C)[C@H](N)C(=O)N[C@H](C(=O)N[C@@H](C)C(=O)N[C@@H](CCSC)C(=O)N[C@@H](CCCCN)C(=O)O)[C@@H](C)CC` (H-IIAMK-OH), the inhibition entry in test [1] was “Dose-dependent effect”. Moreover, the IC50 (usually the concentration at which inhibition is half-maximal) in test [2] was found to be 498 µM.
